Each structure is given as a SMILES string.

From patent US9273033B2, “Substituted pyridone derivatives as PDE10 inhibitors” (Merck Sharp & Dohme Corp., priority 2012, dated 2016) come the findings set out here.

human PDE10A2, sequence (Q9Y233 267-1055): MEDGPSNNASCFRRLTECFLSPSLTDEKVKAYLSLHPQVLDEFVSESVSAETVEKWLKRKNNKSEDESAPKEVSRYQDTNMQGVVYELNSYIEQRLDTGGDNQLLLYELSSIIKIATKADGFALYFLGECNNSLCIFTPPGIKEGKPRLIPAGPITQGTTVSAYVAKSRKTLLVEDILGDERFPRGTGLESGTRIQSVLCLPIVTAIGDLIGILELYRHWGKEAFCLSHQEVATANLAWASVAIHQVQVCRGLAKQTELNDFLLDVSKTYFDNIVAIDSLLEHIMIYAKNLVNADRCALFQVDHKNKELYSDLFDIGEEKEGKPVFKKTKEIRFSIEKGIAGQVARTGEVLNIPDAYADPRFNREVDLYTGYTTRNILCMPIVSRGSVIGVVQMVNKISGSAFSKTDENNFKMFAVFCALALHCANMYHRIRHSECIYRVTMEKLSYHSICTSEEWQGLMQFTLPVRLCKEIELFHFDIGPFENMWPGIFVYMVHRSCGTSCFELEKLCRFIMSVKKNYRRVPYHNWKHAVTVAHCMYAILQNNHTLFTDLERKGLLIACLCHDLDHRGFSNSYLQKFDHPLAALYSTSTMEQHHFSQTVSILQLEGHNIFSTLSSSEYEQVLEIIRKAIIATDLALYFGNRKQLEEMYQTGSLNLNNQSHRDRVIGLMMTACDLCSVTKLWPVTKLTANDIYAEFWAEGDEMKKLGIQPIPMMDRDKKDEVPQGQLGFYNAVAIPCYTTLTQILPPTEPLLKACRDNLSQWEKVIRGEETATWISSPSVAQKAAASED

In the experiment the target is human PDE10A2 (Homo sapiens (Human), UniProt Q9Y233). As to the kind of experiment: PDE10 fluorescence polarization (IMAP FP) inhibition assay. As to conditions: human PDE10A2, FAM-labeled cAMP substrate, read-out: PDE10A Ki. It counts as biochemical. The protocol:
The activity of the compounds in accordance with the present invention as PDE10 inhibitors may be readily determined without undue experimentation using a fluorescence polarization (FP) methodology that is well known in the art (Huang, W., et al., J. Biomol Screen, 2002, 7: 215).
In a typical experiment the PDE10 inhibitory activity of the compounds of the present invention was determined in accordance with the following experimental method. PDE10A2 was amplified from human fetal brain cDNA (Clontech, Mountain View, Calif.) using a forward primer corresponding to nucleotides 56-77 of human PDE10A2 (Accession No. AF127480, Genbank Identifier 4894716), containing a Kozak consensus sequence, and a reverse primer corresponding to nucleotides 2406-2413 of human PDE10A2 (Accession No. AF127480, Genbank Identifier 4894716). Amplification with Easy-A polymerase (Stratagene, La Jolla, Calif.) was 95° C. for 2 minutes followed by thirty three cycles of 95° C. for 40 seconds, 55° C. for 30 seconds, and 72° C. for 2 minutes 48 seconds. Final extension was 72° C. for 7 minutes. The PCR product was TA cloned into pcDNA3.2-TOPO (Invitrogen, Carlsbad, Calif.) according to standard protocol. AD293 cells with 70-80% confluency were transiently transfected with human PDE10A2/pcDNA3.2-TOPO using Lipofectamine 2000 according to manufacturer specifications (Invitrogen, Carlsbad, Calif.). Cells were harvested 48 hours post-transfection and lysed by sonication (setting 3, 10×5 sec pulses) in a buffer containing 20 mM HEPES, 1 mM EDTA and protease inhibitor cocktail (Roche). Lysate was collected by centrifugation at 75,000×g for 20 minutes. Supernatant containing the cytoplasmic fraction was used for evaluation of PDE10A2 activity. The fluorescence polarization assay for cyclic nucleotide phosphodiesterases was performed using an IMAP® FP kit supplied by Molecular Devices, Sunnyvale, Calif. (product # R8139). IMAPU technology has been applied previously to phosphodiesterase assays (Huang, W., et al., J. Biomol Screen, 2002, 7: 215). Assays were performed at room temperature in 384-well microtiter plates with an incubation volume of 20.2 μL. Solutions of test compounds were prepared in DMSO and serially diluted with DMSO to yield 8 μL of each of 10 solutions differing by 3-fold in concentration, at 32 serial dilutions per plate. 100% inhibition is determined using a known PDE10 inhibitor, which can be any compound that is present at 5,000 times its Ki value in the assay described as follows, such as papaverine (see Siuciak, et al. Neuropharmacology (2006) 51:386-396; Becker, et al. Behav Brain Res (2008) 186(2):155-60; Threlfell, et al., J Pharmacol Exp Ther (2009) 328(3):785-795), 2-{4-[pyridin-4-yl-1-(2,2,2-trifluoroethyl)-1H-pyrazol-3-yl]phenoxymethyl}quinoline succinic acid or 2-[4-(1-methyl-4-pyridin-4-yl-1H-pyrazol-3-yl)-phenoxymethyl]quinoline succinic acid (see Schmidt, et al. J Pharmacol Exp Ther (2008) 325:681-690; Threlfell, et al., J Pharmacol Exp Ther (2009) 328(3): 785-795). 0% of inhibition is determined by using DMSO (1% final concentrations).
A Labcyte Echo 555 (Labcyte, Sunnyvale, Calif.) is used to dispense 200 nL from each well of the titration plate to the 384 well assay plate. A solution of enzyme (1/1600 dilution from aliquots; sufficient to produce 20% substrate conversion) and a separate solution of FAM-labeled cAMP PDE from Molecular Devices (product # R7506), at a final concentration of 50 nM are made in the assay buffer (10 mM Tris HCl, pH 7.2, 10 mM MgCl2, 0.05% NaN3 0.01% Tween-20, and 1 mM DTT). The enzyme and the substrate are then added to the assay plates in two consecutive additions of 10 μL, and then shaken to mix. The reaction is allowed to proceed at room temperature for 30 minutes. A binding solution is then made from the kit components, comprised of 80% Solution A, 20% Solution B and binding reagent at a volume of 1/600 the total binding solution.
A general note: Fluorescence polarisation rises when a labelled molecule tumbles more slowly, as on binding a larger partner.
`Cc1ccc([C@H]2C[C@@H]2COc2nc(C)ncc2-c2ccc(=O)n(C(C)C)c2C)nc1` [Example 37, 1-isopropyl-6-methyl-5-(2-methyl-4-(((1S,2S)-2-(5-methylpyridin-2-yl)cyclopropyl)methoxy)pyrimidin-5-yl)pyridin-2(1H)-one]: the inhibition constant (Ki) is 4.27 nM.
For the molecule `COc1ccc([C@H]2C[C@@H]2COc2nc(C)ncc2-c2cc(=O)n(C)cn2)nc1` [Example 142, 6-(4-(((1S,2S)-2-(5-methoxypyridin-2-yl)cyclopropyl)methoxy)-2-methylpyrimidin-5-yl)-3-methylpyrimidin-4(3H)-one], the Ki worked out at 6.04 nM.
With `COc1ccc([C@H]2C[C@@H]2COc2nc(C)ncc2-c2cc(=O)n(C)cc2Cl)nc1` [Example 73, 5-chloro-4-(4-(((1S,2S)-2-(5-methoxypyridin-2-yl)cyclopropyl)methoxy)-2-methylpyrimidin-5-yl)-1-methylpyridin-2(1H)-one], the Ki amounted to 1.13 nM.
Under `CCn1ccc(-c2cnc(C)nc2OC[C@H]2C[C@@H]2c2ccc(OC)cn2)cc1=O` [Example 95, 1-ethyl-4-(4-(((1S,2S)-2-(5-methoxypyridin-2-yl)cyclopropyl)methoxy)-2-methylpyrimidin-5-yl)pyridin-2(1H)-one] stands 0.75 nM; under `COCCn1c(C)c(-c2cnc(C)nc2OC[C@H]2C[C@@H]2c2ccc(OC)cn2)ccc1=O` [Example 30, 1-(2-methoxyethyl)-5-(4-(((1S,2S)-2-(5-methoxypyridin-2-yl)cyclopropyl)methoxy)-2-methylpyrimidin-5-yl)-6-methylpyridin-2(1H)-one], 1.46 nM.
As for `COc1ccc([C@H]2C[C@@H]2COc2nc(C)ncc2-c2ccn(CC(F)F)c(=O)c2)nc1` [Example 130, 1-(2,2-difluoroethyl)-4-(4-(((1S,2S)-2-(5-methoxypyridin-2-yl)cyclopropyl)methoxy)-2-methylpyrimidin-5-yl)pyridin-2(1H)-one], the Ki was 0.386 nM.
The value for `Cc1ncc(-c2ccc(=O)n(C(C)C)c2)c(OC[C@H]2C[C@@H]2c2ccc3ccccc3n2)n1` [Example 9, 1-isopropyl-5-(2-methyl-4-(((1S,2S)-2-(quinolin-2-yl)cyclopropyl)methoxy)pyrimidin-5-yl)pyridin-2(1H)-one] was 0.014 nM.
The value for `Cc1ccc([C@H]2C[C@@H]2COc2nc(C)ncc2-c2cc(C)c(=O)n(C)n2)nc1` [Example 65, 2,4-dimethyl-6-(2-methyl-4-(((1S,2S)-2-(5-methylpyridin-2-yl)cyclopropyl)methoxy)pyrimidin-5-yl)pyridazin-3(2H)-one] was 1.83 nM.
Under `Cc1ncc(-c2ccc(=O)n(C)c2C)c(OC[C@H]2C[C@@H]2c2ccc3c(n2)CCC3)n1` [Example 58, 5-(4-(((1S,2S)-2-(6,7-dihydro-5H-cyclopenta[b]pyridin-2-yl)cyclopropyl)methoxy)-2-methylpyrimidin-5-yl)-1,6-dimethylpyridin-2(1H)-one] stands 0.481 nM; under `COc1ccc([C@H]2C[C@@H]2COc2nc(C)ncc2-c2ccc(=O)n(C(F)F)c2)nc1` [Example 20, 1-(difluoromethyl)-5-(4-(((1S,2S)-2-(5-methoxypyridin-2-yl)cyclopropyl)methoxy)-2-methylpyrimidin-5-yl)pyridin-2(1H)-one], 1.21 nM.
`Cc1ccc([C@H]2C[C@@H]2COc2nc(C)ncc2-c2ccc(=O)n(C(F)F)c2)nc1` [Example 14, 1-(difluoromethyl)-5-(2-methyl-4-(((1S,2S)-2-(5-methylpyridin-2-yl)cyclopropyl)methoxy)pyrimidin-5-yl)pyridin-2(1H)-one]: the Ki was found to be 1.1 nM.
For `COc1ccc([C@H]2C[C@@H]2COc2nc(C)ncc2-c2cc(=O)[nH]cc2C)nc1` [Example 77, 4-(4-(((1S,2S)-2-(5-methoxypyridin-2-yl)cyclopropyl)methoxy)-2-methylpyrimidin-5-yl)-5-methylpyridin-2(1H)-one], the inhibitory constant (Ki) was 0.612 nM.
Under `Cc1ccc([C@H]2C[C@@H]2COc2nc(C)ncc2-c2nn(C)c(=O)cc2C)nc1` [Example 68, 2,5-dimethyl-6-(2-methyl-4-(((1S,2S)-2-(5-methylpyridin-2-yl)cyclopropyl)methoxy)pyrimidin-5-yl)pyridazin-3(2H)-one] stands 9.68 nM; under `COc1ccc([C@H]2C[C@@H]2COc2nc(C)ncc2-c2ccn(C)c(=O)c2)nc1` [Example 70, 4-(4-(((1S,2S)-2-(5-methoxypyridin-2-yl)cyclopropyl)methoxy)-2-methylpyrimidin-5-yl)-1-methylpyridin-2(1H)-one], 1.25 nM; under `Cc1ncc(-c2ccn(C)c(=O)c2)c(OC[C@@H]2C[C@H]2c2ccc(OC(F)F)cn2)n1` [Example 94, 4-(4-(((1R,2R)-2-(5-(difluoromethoxy)pyridin-2-yl)cyclopropyl)methoxy)-2-methylpyrimidin-5-yl)-1-methylpyridin-2(1H)-one], 100 nM.
The value for `COCCn1c(C)c(-c2cnc(C)nc2OC[C@H]2C[C@@H]2c2ccc3ccccc3n2)ccc1=O` [Example 31, 1-(2-methoxyethyl)-6-methyl-5-(2-methyl-4-(((1S,2S)-2-(quinolin-2-yl)cyclopropyl)methoxy)pyrimidin-5-yl)pyridin-2(1H)-one] was 0.045 nM.
The value for `COCCn1ccc(-c2cnc(C)nc2OC[C@H]2C[C@@H]2c2ccc3ccccc3n2)cc1=O` [Example 100, 1-(2-methoxyethyl)-4-(2-methyl-4-(((1S,2S)-2-(quinolin-2-yl)cyclopropyl)methoxy)pyrimidin-5-yl)pyridin-2(1H)-one] was 0.012 nM; that for `Cc1ncc(-c2cc(=O)n(C)cc2C)c(OC[C@H]2C[C@@H]2c2ccc3ccccc3n2)n1` [Example 76, 1,5-dimethyl-4-(2-methyl-4-(((1S,2S)-2-(quinolin-2-yl)cyclopropyl)methoxy)pyrimidin-5-yl)pyridin-2(1H)-one] was 0.035 nM.
As to `Cc1ccc([C@H]2C[C@@H]2COc2nc(C)ncc2-c2cc(F)c(=O)n(C)c2)nc1` [Example 25, 3-fluoro-1-methyl-5-(2-methyl-4-(((1S,2S)-2-(5-methylpyridin-2-yl)cyclopropyl)methoxy)pyrimidin-5-yl)pyridin-2(1H)-one], the Ki amounted to 1.55 nM.
The value for `COc1ccc([C@H]2C[C@@H]2COc2nc(C)ncc2-c2ccn(CC(=O)O)c(=O)c2)nc1` [Example 134, 2-(4-(4-(((1S,2S)-2-(5-methoxypyridin-2-yl)cyclopropyl)methoxy)-2-methylpyrimidin-5-yl)-2-oxopyridin-1(2H)-yl)acetic acid] was 9.85 nM.
Under `COc1ccc([C@H]2C[C@@H]2COc2nc(C)ncc2-c2cn(C)c(=O)cn2)nc1` [Example 61, 5-(4-(((1S,2S)-2-(5-methoxypyridin-2-yl)cyclopropyl)methoxy)-2-methylpyrimidin-5-yl)-1-methylpyrazin-2(1H)-one] stands 16.7 nM.
For `Cc1ncc(-c2cc(=O)[nH]cc2C)c(OC[C@H]2C[C@@H]2c2ccccn2)n1` [Example 75, 5-methyl-4-(2-methyl-4-(((1S,2S)-2-(pyridin-2-yl)cyclopropyl)methoxy)pyrimidin-5-yl)pyridin-2(1H)-one], the Ki stood at 8.38 nM.
On to `Cc1ccc([C@H]2C[C@@H]2COc2nc(C)ncc2-c2cc(=O)[nH]cc2C)nc1` [Example 71, 5-methyl-4-(2-methyl-4-(((1S,2S)-2-(5-methylpyridin-2-yl)cyclopropyl)methoxy)pyrimidin-5-yl)pyridin-2(1H)-one], for which the Ki came to 1.01 nM.

One may read the Ki as the equilibrium dissociation constant of an inhibitor or competing ligand from its target.
